Legend:
[1] = system: creatinine (Cr) and blood urea nitrogen (BUN); test: Cr and urea nitrogen in serum and liver of hyperuricemic mice (renal function); format: in vivo, Balb/C mice; settings: AL
Procedure: (§1) Due to the presence of uricase in mice, a hyperuricemic mouse model was established by using uricase inhibitor and large amounts of purine. Mice were randomly divided into five groups (n=10), including the control group (NC), model group (MC), 20 mg/kg of AL (Shimao Tianjie Pharmaceutical Co. Ltd, Jiangsu, China) group, 10 μg BHA group (10BHA) and 50 μg BHA group (50BHA). Oral administration of AL and intraperitoneal injection of BHA were administered according to the required dose, and all mice were gavage fed 20 g/kg yeast extract powder 12 h prior to the administration of AL and BHA except for NC mice for 8 days. From the 6th to 8th day, 1-h prior to AL and BHA administration, 300 mg/kg of OXO (Sigma, USA) was intraperitoneally injected to all of the mice except those in the control group. At 1 h after the final drug administration, blood was sampled from caudal veins of the mice, serum was separated and their livers were quickly collected (FIG. 3A, E). All samples were stored at −80° C. until assay measurements were performed.
(§2) The levels of reactive oxygen species (ROS, 43355), malondialdehyde (MDA, 43124) glutathione peroxidase (GSH-Px, 43390), superoxide dismutase (SOD, 43125), catalase (CAT, 43356), creatinine (Cr, 43353) and blood urea nitrogen (BUN, 43352) in the serum and livers of mice were determined using ELISA Kits (Yuanye Bio-Technology Co. Ltd, Shanghai, China) according to the manufacturer's instructions.

[2] = system: factors related to oxidative stress; test: Factors related to oxidative stress in serum and liver of hyperuricemia mice (ELISA); format: in vivo, Balb/C mice
Procedure: as §1, §2

hyperuricemic mice = test: Serum UA in OXO- and yeast extract-induced hyperuricemic mice; format: in vivo, Balb/C mice; settings: 20 mg/kg AL oral, P<0.01
Procedure: (§3) Male Balb/C mice (n=50, 8 weeks: 18-22 g), purchased from Yisi Experimental Animal Technology Company Ltd, Jilin, China (SCXK (Ji)-2016-0003). These mice were housed in plastic cages and maintained on a 12-h light/12-h dark cycle (lights on 7:00-19:00 h) under standard laboratory conditions of 55% relative humidity and 23±1° C. They were given standard feed and tap water ad libitum. All experimental procedures were approved by the Animal Ethics Committee of Jilin University (Reference NO. 201605).
Due to the presence of uricase in mice, a hyperuricemic mouse model was established by using uricase inhibitor and large amounts of purine. Mice were randomly divided into five groups (n=10), including the control group (NC), model group (MC), 20 mg/kg of AL (Shimao Tianjie Pharmaceutical Co. Ltd, Jiangsu, China) group, 10 μg BHA group (10BHA) and 50 μg BHA group (50BHA). Oral administration of AL and intraperitoneal injection of BHA were administered according to the required dose, and all mice were gavage fed 20 g/kg yeast extract powder 12 h prior to the administration of AL and BHA except for NC mice for 8 days. […]
(§4) The serum UA concentrations and XO levels in the serum and liver were determined with a standard diagnostic kit (MAK077, MAK078 Sigma, USA) according to the manufacturer's instructions.

xanthine oxidase (XO) = test: XO levels in serum and liver of hyperuricemic mice; format: in vivo, Balb/C mice; settings: AL 20 mg/kg; P<0.05
Procedure: as §1, §4

inflammation factors = test: Serum inflammation factors by ELISA in rats with MSU-induced acute gout; format: in vivo, Wistar rats
Procedure: (§5) An experimental model of MSU-induced gouty arthritis was used in order to evaluate the anti-inflammatory activities of BHA. Rats were randomly divided into five groups (n=10), include a control group (NC), a model group (MC), a 0.3 mg/kg colchicine group (COL), a 10 μg BHA group (10BHA) and a 50 μg BHA group (50BHA). MSU crystals were suspended in 0.9% sterile saline (30 mg/mL) prior to use. The colchicine group rats were orally administrated colchicine (0.3 mg/kg) for 8 days, and all rats except for the control group were injected with 3 mg of MSU (Sigma, USA) at the 6th day into the right ankle synovial space 1 h after gavage feeding. Meanwhile a turbid sample of MSU mixed with 100 μg of BHA or 500 μg of BHA per mL of solution for 10BHA rats or 50BHA rats. At the 8th day, 1 h after the administration of the final agents, blood was sampled from the caudal veins of the rats and the right ankle joints of the rats were collected and fixed in 4% paraformaldehyde. Serum was separated and stored at −80° C. prior to analysis (FIG. 2A, E).
The serum levels of interleukin-1α (IL-1α, 41734), IL-1β (43360), interleukin-6 (IL-6, 41731), interleukin-8 (IL-8, 41716), IL-10 (41736), interleukin-16 (IL-16, 41628), C—X—C motif chemokine 10 (CXCL10, 41570), monocyte chemoattractant protein 1 (MCP-1, 41640), macrophage inflammatory protein 1α (MIP-1α, 41645), interferon gamma (IFN-γ, 41739), TNF-α (41721), tumor necrosis factor-β (TNF-β, 41673), nuclear factor κ-light-chain-enhancer of activated B cells (NF-κB, 43358), 6-keto-prostaglandin F-1α (6-Keto-PGF1α, 41809) and prostaglandin E2 (PGE2, 41609) in rats were determined by the ELISA method using related Elisa Kits (Yuanye Bio-Technology Co. Ltd, Shanghai, China) according to the manufacturer's instructions.

[3] = system: rats with MSU-induced gouty arthritis; test: Dose screening on MSU crystals-induced acute gout in rats: ankle swelling ratio; format: in vivo, Wistar rats; settings: n=6, COL 0.3 mg/kg, at 4 h only, P<0.05
Procedure: as §3, with “48 male Wistar rats (8” for “Male Balb/C mice (n=50, 8”, “180-200” for “18-22”, “(Ji)-2016-0003),” for “(Ji)-2016-0003). These mice”, “23° C.±1°” for “23±1°”, “chow” for “feed”
An experimental model of MSU-induced gouty arthritis was used in order to evaluate the anti-inflammatory activities of BHA similar as previous studies with some modifications. Rats were randomly divided into eight groups (n=6), including control group (NC), model group (MC), 0.3 mg/kg colchicine group (COL), 5 μg BHA group (5BHA), 10 μg BHA group (10BHA), 25 μg BHA group (25BHA), 50 μg BHA group (50BHA), 100 μg BHA group (100BHA). MSU crystals were suspended in 0.9% sterile saline (30 mg/mL) prior to use. Rats in the colchicine group were orally administered colchicine (0.3 mg/kg) for 8 days. At day 6, MSU solution (100 μL of 30 mg/mL) was intra-articular injected at the right ankles of all rats except the NC group m which were injected with saline solution. 5BHA, 10BHA, 25BHA, 50BHA and 100BHA groups received intra-articular injections of 5, 10, 25, 50, or 100 μg BHA along with MSU solution (100 μL of 30 mg/mL MSU solution contains 5, 10, 25, 50 or 100 μg BHA) were administered according to the stated BHA doses.
The right ankle circumference of all rats at 0, 4, 12, 24 and 48 h after MSU injection was measured. The swelling ratio (%) was used for evaluating the gouty arthritis and calculated according to the change of the circumference following the formula: Swelling ratio (%)=(Ct−C0)/C0. Wherein, Ct represented the circumference at t hour and C0 represented the circumference at 0 hour.

[4] = system: inflammatory cell infiltration in the synovium; test: Histopathological assessment of ankle joint synovium (H&E) in MSU crystal-injected rats; format: in vivo, Wistar rats; settings: COL 0.3 mg/kg; MSU crystal-injected rats; H&E
Procedure: In one study, a histopathological assessment was conducted of synovium in ankle joints of rats after H&E staining. The right ankles of […] were excised and fixed in 4% paraformaldehyde, and subsequently decalcified using 10% ethylenediaminetetraacetic acid. They were then dehydrated via processing in alcohol/xylene mixtures with different proportions and concentrations. The histological sections were stained with hematoxylin and eosin. The histopathological changes of the joint synovium were assessed for the degree of inflammatory cell infiltrate, by an experienced histopathologist. Microscopy at magnifications of 40×, 100×, 200× and 400× were investigated for typical areas for each of the five groups.
The right ankles of rats were collected and fixed in 4% paraformaldehyde, and subsequently decalcified using 10% ethylenediaminetetraacetic acid. They were then dehydrated by processing in alcohol/xylene mixtures with different proportions and concentrations. The histological sections were later stained with hematoxylin and eosin for observation under an optical microscope (200×). The histopathological changes were analyzed with regard to deformaties of the joint synovium and infiltration by inflammatory cells into the ankle.

[5] = system: rats with MSU-induced acute gout; test: MSU crystal-induced acute gout in rats: ankle swelling ratio; format: in vivo, Wistar rats; settings: COL 0.3 mg/kg; at 12 h; P<0.05
Procedure: Male Wistar rats (n=50, 8 weeks: 160-200 g) were purchased from Liaoning Changsheng Biotechnology Company Ltd, Jilin, China (SCXK (Liao)-2015-0001). These rats were housed in plastic cages and maintained on a 12-h light/12-h dark cycle (lights on 7:00-19:00 h) under standard laboratory conditions of 55% relative humidity and at 23° C.±1° C. They were given standard chow (Liaoning Changsheng Biotechnology Company Ltd, Jilin, China) and tap water ad libitum. All experimental procedures were approved by the Animal Ethics Committee of Jilin University (Reference NO. 201605).
as §5
The right ankle circumferences of all rats at 0, 4, 12, 24 and 48 h after MSU injection were measured. The swelling ratio (%) was used to evaluate the gouty arthritis and calculated according to the change of the circumference via the formula: Swelling ratio (%)=(Ct−C0)/C0, wherein, Ct represented the circumference at time t (in h) and C0 represented the circumference at 0 h.

[6] = hyperuricemia mice, AL 20 mg/kg oral, mean ± S.D., n=10
[7] = serum, MSU-induced acute gout rats, COL 0.3 mg/kg oral 8 days, mean ± S.D., n=10

In the case of `Oc1ncnc2[nH]ncc12` [AL, allopurinol, reference compound], the “lowering of Cr in the liver” value ([1]; P<0.01) is reported as 15.28%, the “lowering of Cr in the serum” value ([1]; hyperuricemic mice, P<0.05) is reported as 11.52% and the “lowering of urea nitrogen in the liver” value ([1]; hyperuricemic mice, P<0.05) is reported as 25.25%. For the same compound, the “suppression of MDA level in the liver” value ([2]; AL, hyperuricemic mice, P<0.05) was 13.47%, the “suppression of MDA level in the serum” value ([2]; AL, hyperuricemic mice, P<0.05) was 6.66% and the “suppression of ROS level in the liver” value ([2]; AL, hyperuricemic mice, P<0.05) was 17.86%. The “suppression of ROS level in the serum” value ([2]; AL, hyperuricemic mice, P<0.05) was 9.48%, the “Liver CAT” value [2, 6] was 12.9 ± 1.3 U/mg and the “Liver GSH-PX” value [2, 6] was 66.1 ± 7.2 U/mg. The “Liver MDA” value [2, 6] was 3.1 ± 0.2 nmol/mg, the “Liver ROS” value [2, 6] was 63.2 ± 6.2 U/mg and the “Liver SOD” value [2, 6] was 48.5 ± 3.4 U/mg. The “Serum CAT” value [2, 6] was 41.6 ± 5.6 U/mL, the “Serum GSH-PX” value [2, 6] was 231.8 ± 7.7 U/mL and the “Serum MDA” value [2, 6] was 10.2 ± 0.5 nmol/mL. For the same compound, the “Serum ROS” value [2, 6] was 240.9 ± 23.9 U/mL, the “Serum SOD” value [2, 6] was 159.2 ± 8 U/mL and the “suppression of serum UA level” value (hyperuricemic mice) was 46.38%. For the same compound, the “reduction of XO levels in the serum compared to untreated mice” value (xanthine oxidase (XO)) was 23.76%.

In the case of `COc1cc2c(c(OC)c1OC)-c1ccc(OC)c(=O)cc1[C@@H](NC(C)=O)CC2` [COL, colchicine, reference compound], the “decrease of serum MCP-1 compared to rats injected with MSU” value (inflammation factors; COL 0.3 mg/kg, P<0.05) is reported as 9.93%, the 6-Keto-PGF1α (inflammation factors; [7]) is reported as 266.3 ± 12.7 and the IFN-γ (inflammation factors; [7]) is reported as 88.2 ± 35 pg/mL. It also gave an IL-1α (inflammation factors; [7]) of 74.3 ± 12.6 pg/mL, an IL-1β (inflammation factors; [7]) of 19.1 ± 1.2 pg/mL and an IL-6 (inflammation factors; [7]) of 74.7 ± 7.9 pg/mL. For the same compound, the IL-8 (inflammation factors; [7]) was 222.7 ± 11.5 pg/mL, the IL-10 (inflammation factors; [7]) was 11.5 ± 0.7 pg/mL and the IL-16 (inflammation factors; [7]) was 416.7 ± 16.1 pg/mL. The IP-10 (inflammation factors; [7]) was 153.5 ± 20.3 pg/mL, the MCP-1 (inflammation factors; [7]) was 311.5 ± 20.8 pg/mL and the MIP-1α (inflammation factors; [7]) was 294.6 ± 21.5 pg/mL. For the same compound, the NF-κB (inflammation factors; [7]) was 494.6 ± 132. pg/mL, the PGE2 (inflammation factors; [7]) was 207.7 ± 10^ pg/mL and the TNF-α (inflammation factors; [7]) was 154.8 ± 8.5 pg/mL. The TNF-β (inflammation factors; [7]) was 124.8 ± 10.5 pg/mL, the “swelling of the ankle compared to MSU treated group” value [3] was “significantly suppressed swelling of the ankle” and the “pathological changes (inflammatory cell infiltration) in synovium” value [4] was “partially prevented the pathological changes”. The “ankle swelling compared to the MSU treated group” value [5] was “suppressed ankle swelling”.
